Test results reported in US20240148709A1, “METHODS OF TREATING EYE PAIN AND EYE DISORDERS” (Aisa Pharma, Inc., priority 2022, published 2024).

Tested on: participants with SSc-RP
Test: Scleroderma Health Assessment Questionnaire (SHAQ), Phase 2a study Part A
Type: in vivo, human
Procedure: Part A—double-blind, placebo-controlled, parallel-group, dose selection, will assess the safety and efficacy of two doses of cilnidipine (10 mg and 20 mg), alone and in combination with tadalafil. A total of 36 participants will be randomized to one of six prespecified treatment arms. Refer to FIG. 1 for treatment arms in Part A of the study. Dosing last for 12 (±2) days in which participants will self-administer daily doses of assigned treatment in the morning. Each participant will take one capsule and one tablet to blind the active therapy being received.
The standard, validated, patient reported outcome measures tool for SSc patients, the SHAQ, will be collected at the time points specified in the study schedules (FIG. 2 and FIGS. 3A and 3B) to assess the participant's quality of life. The SHAQ includes a Raynaud's VAS that will also be reported separately.
Results: Patients in the study were administered the Scleroderma Health Assessment Questionnaire (SHAQ) at the time of study entry and during clinic visits following the treatment period. The study is a two-part, parallel arm design, prospective, double-blind, randomized study conducted in Australia (Flinders Medical Center). 27 patients were randomized into the first phase of the study, following which a DSMB meeting was held, which reviewed data on the primary study endpoint and key Raynaud's secondary endpoints. Data on the SHAQ was not available for the DSMB to review. The mITT population, in which any data was available post treatment was 24 patients was the analysis population for this first part of the study. The second part (i.e., part B) of the study will randomize 36 patients in a double blind, randomized, prospective, placebo controlled, crossover study. In the first part (i.e., Part A) of the study for which data is presented, patients were randomized into 6 groups, cilnidipine at two doses (10 and 20 mg) alone and in combination with tadalafil 5 mg, tadalafil 5 mg alone, and placebo. […] The DSMB recommended that the study proceed into its double blind prospective cross overpowered second phase and compare cilnidipine 20 mg alone to placebo.

[1] = cilnidipine 10 mg and/or tadalafil 5 mg arms
[2] = cilnidipine 20 mg arms (alone or + tadalafil 5 mg)

COCCOC(=O)C1=C(C)NC(C)=C(C(=O)OC/C=C/c2ccccc2)C1c1cccc([N+](=O)[O-])c1 (stereo not shown) [Cilnidipine, cilnidipine] was tested, and the “SHAQ Visual Analog Scale-Raynaud's, In Clinic Visit (Day 12), Mean (SD)” value [1] was 1.925 (1.9207), the “SHAQ Visual Analog Scale-Raynaud's, In Clinic Visit (Day 12), Median” value [1] was 1.700 and the “SHAQ Visual Analog Scale-Raynaud's, In Clinic Visit (Day 12), Min” value [1] was 0.00. The “SHAQ Visual Analog Scale-Raynaud's, In Clinic Visit (Day 12), Q1” value [1] was 0.400, the “SHAQ Visual Analog Scale-Raynaud's, In Clinic Visit (Day 12), Q3” value [1] was 3.450 and the “SHAQ Visual Analog Scale-Raynaud's, Percent Change from Baseline, Max” value [1] was 136.4%. For the same compound, the “SHAQ Visual Analog Scale-Raynaud's, Percent Change from Baseline, Mean (SD)” value [1] was 11.36 (118.770) %, the “SHAQ Visual Analog Scale-Raynaud's, Percent Change from Baseline, Median” value [1] was −2.27% and the “SHAQ Visual Analog Scale-Raynaud's, Percent Change from Baseline, Min” value [1] was −100.0%. The “SHAQ Visual Analog Scale-Raynaud's, Percent Change from Baseline, Q1” value [1] was −100.00%, the “SHAQ alternative disability index, Change from Baseline, Max” value [1] was 0.38 and the “SHAQ alternative disability index, Change from Baseline, Mean (SD)” value [1] was 0.063 (0.2165). The “SHAQ alternative disability index, Change from Baseline, Median” value [1] was 0.000, the “SHAQ alternative disability index, Change from Baseline, Min” value [1] was −0.13 and the “SHAQ alternative disability index, Change from Baseline, Q1” value [1] was −0.063. For the same compound, the “SHAQ alternative disability index, Change from Baseline, Q3” value [1] was 0.188, the “SHAQ alternative disability index, In Clinic Visit (Day 12), Max” value [1] was 1.25 and the “SHAQ alternative disability index, In Clinic Visit (Day 12), Mean (SD)” value [1] was 0.563 (0.6575). For the same compound, the “SHAQ alternative disability index, In Clinic Visit (Day 12), Median” value [1] was 0.500, the “SHAQ alternative disability index, In Clinic Visit (Day 12), Min” value [1] was 0.00 and the “SHAQ alternative disability index, In Clinic Visit (Day 12), Q1” value [1] was 0.000. For the same compound, the “SHAQ alternative disability index, In Clinic Visit (Day 12), Q3” value [1] was 1.125, the “SHAQ alternative disability index, Percent Change from Baseline, Max” value [1] was 42.9% and the “SHAQ alternative disability index, Percent Change from Baseline, Mean (SD)” value [1] was 15.87 (38.161) %. For the same compound, the “SHAQ alternative disability index, Percent Change from Baseline, Median” value [1] was 15.87%, the “SHAQ alternative disability index, Percent Change from Baseline, Min” value [1] was −11.1% and the “SHAQ alternative disability index, Percent Change from Baseline, Q1” value [1] was −11.11%. For the same compound, the “SHAQ alternative disability index, Percent Change from Baseline, Q3” value [1] was 42.86%, the “SHAQ Finger Ulcers, Change from Baseline, Max” value [2] was 0.40 and the “SHAQ Finger Ulcers, Change from Baseline, Mean (SD)” value [2] was −0.933 (1.9732). The “SHAQ Finger Ulcers, Change from Baseline, Median” value [2] was 0.000, the “SHAQ Finger Ulcers, Change from Baseline, Min” value [2] was −3.20 and the “SHAQ Finger Ulcers, Change from Baseline, Q1” value [2] was −3.200. The “SHAQ Finger Ulcers, Change from Baseline, Q3” value [2] was 0.400, the “SHAQ Finger Ulcers, In Clinic Visit (Day 12), Max” value [2] was 1.90 and the “SHAQ Finger Ulcers, In Clinic Visit (Day 12), Mean (SD)” value [2] was 0.867 (0.9609). For the same compound, the “SHAQ Finger Ulcers, In Clinic Visit (Day 12), Median” value [2] was 0.700, the “SHAQ Finger Ulcers, In Clinic Visit (Day 12), Min” value [2] was 0.00 and the “SHAQ Finger Ulcers, In Clinic Visit (Day 12), Q1” value [2] was 0.000. For the same compound, the “SHAQ Finger Ulcers, In Clinic Visit (Day 12), Q3” value [2] was 1.900, the “SHAQ Finger Ulcers, Percent Change from Baseline, Max” value [2] was 133.3% and the “SHAQ Finger Ulcers, Percent Change from Baseline, Mean (SD)” value [2] was 35.29 (138.648) %. For the same compound, the “SHAQ Finger Ulcers, Percent Change from Baseline, Median” value [2] was 35.29%, the “SHAQ Finger Ulcers, Percent Change from Baseline, Min” value [2] was −62.7% and the “SHAQ Finger Ulcers, Percent Change from Baseline, Q1” value [2] was −62.75%. The “SHAQ Finger Ulcers, Percent Change from Baseline, Q3” value [2] was 133.33%, the “SHAQ Overall Change in Severity, Change from Baseline, Max” value [2] was −1.50 and the “SHAQ Overall Change in Severity, Change from Baseline, Median” value [2] was −1.600. The “SHAQ Overall Change in Severity, Change from Baseline, Min” value [2] was −1.80, the “SHAQ Overall Change in Severity, Change from Baseline, Q1” value [2] was −1.800 and the “SHAQ Overall Change in Severity, Change from Baseline, Q3” value [2] was −1.500. For the same compound, the “SHAQ Overall Change in Severity, In Clinic Visit (Day 12), Max” value [2] was 1.40, the “SHAQ Overall Change in Severity, In Clinic Visit (Day 12), Mean (SD)” value [2] was 1.033 (0.4726) and the “SHAQ Overall Change in Severity, In Clinic Visit (Day 12), Median” value [2] was 1.200. The “SHAQ Overall Change in Severity, In Clinic Visit (Day 12), Min” value [2] was 0.50, the “SHAQ Overall Change in Severity, In Clinic Visit (Day 12), Q1” value [2] was 0.500 and the “SHAQ Overall Change in Severity, In Clinic Visit (Day 12), Q3” value [2] was 1.400. The “SHAQ Overall Change in Severity, Percent Change from Baseline, Max” value [2] was −51.7%, the “SHAQ Overall Change in Severity, Percent Change from Baseline, Mean (SD)” value [2] was −62.64 (12.445) % and the “SHAQ Overall Change in Severity, Percent Change from Baseline, Median” value [2] was −60.00%. The “SHAQ Overall Change in Severity, Percent Change from Baseline, Min” value [2] was −76.2%, the “SHAQ Overall Change in Severity, Percent Change from Baseline, Q1” value [2] was −76.19% and the “SHAQ Overall Change in Severity, Percent Change from Baseline, Q3” value [2] was −51.72%. The “SHAQ Standard disability index, Change from Baseline, Max” value [2] was 0.00, the “SHAQ Standard disability index, Change from Baseline, Mean (SD)” value [2] was −0.125 (0.1250) and the “SHAQ Standard disability index, Change from Baseline, Median” value [2] was −0.125. The “SHAQ Standard disability index, Change from Baseline, Min” value [2] was −0.25, the “SHAQ Standard disability index, Change from Baseline, Q1” value [2] was −0.250 and the “SHAQ Standard disability index, Change from Baseline, Q3” value [2] was 0.000. For the same compound, the “SHAQ Standard disability index, In Clinic Visit (Day 12), Max” value [2] was 0.25, the “SHAQ Standard disability index, In Clinic Visit (Day 12), Mean (SD)” value [2] was 0.125 (0.1250) and the “SHAQ Standard disability index, In Clinic Visit (Day 12), Median” value [2] was 0.125. The “SHAQ Standard disability index, In Clinic Visit (Day 12), Min” value [2] was 0.00, the “SHAQ Standard disability index, In Clinic Visit (Day 12), Q1” value [2] was 0.000 and the “SHAQ Standard disability index, In Clinic Visit (Day 12), Q3” value [2] was 0.250. For the same compound, the “SHAQ Standard disability index, Percent Change from Baseline, Max” value [2] was −33.3%, the “SHAQ Standard disability index, Percent Change from Baseline, Mean (SD)” value [2] was −50.00 (23.570) % and the “SHAQ Standard disability index, Percent Change from Baseline, Median” value [2] was −50.00%. For the same compound, the “SHAQ Standard disability index, Percent Change from Baseline, Min” value [2] was −66.7%, the “SHAQ Standard disability index, Percent Change from Baseline, Q1” value [2] was −66.67% and the “SHAQ Standard disability index, Percent Change from Baseline, Q3” value [2] was −33.33%. The “SHAQ Visual Analog Scale-Breathing Problems, Change from Baseline, Max” value [2] was 0.30, the “SHAQ Visual Analog Scale-Breathing Problems, Change from Baseline, Median” value [2] was −0.800 and the “SHAQ Visual Analog Scale-Breathing Problems, Change from Baseline, Min” value [2] was −2.00. The “SHAQ Visual Analog Scale-Breathing Problems, Change from Baseline, Q1” value [2] was −2.000.
